# Results published in patent US20230321185A1, “METHOD FOR TREATMENT OF TYPE-1 DIABETES IN A SUBJECT IN NEED THEREOF” (priority 2021, published 2023).
# Key:
# Type in all cases: in vivo, Balb/c mice
# [1] = Fasting blood sugar (FBS) in normal and STZ-induced type 1 diabetic mice; conditions: STZ-induced type 1 diabetic mice, IP; for mean percentage of FBS changes decreased by: end of treatment, value is a decrease (untreated D4 increased by 49.23%)
# Experimental: In a 14-day period, diabetes type 1 was induced in a group of mice via injecting multiple low doses of Streptozotocin (STZ). Also, the other group of mice received an equal volume of citrate buffer (pH 4.5) intraperitoneally (I.P.) in the same procedure that was called the normal group.
# (§1) Each of the normal (N) (n=20) and diabetic (D) (n=20) groups was divided into four subgroups. The first group (N1 and D1) (n=5) received 6.7 mg/kg intraperitoneally growth hormone for two weeks. The second group (N2 and D2) (n=5) administrated 0.185 mg/kg intraperitoneally magainin II for approximately four weeks. The third group (N3 and D3) (n=5) first received 0.185 mg/kg of magainin II for four weeks, and then 6.7 mg/kg of growth hormone for two weeks. Finally, the fourth group (N4 and D4) (n=5) received only an equal volume of physiological saline instead of these treatments.
# (§2) FBS measurements before the treatment and weekly during the treatment, and glucose tolerance test (GTT) at the end of the treatment were performed. The pancreatic tissue was quickly removed and placed in a cold phosphate buffer saline (PBS). Some of the extracted tissues for additional tests were stored in a freezer (−80° C.) and some were immersed in 4% paraformaldehyde (PFA) for immunohistochemical staining.
# Diabetes type 1 was induced in a group of mice via injecting multiple low doses of Streptozotocin (STZ) (40 mg/kg, intraperitoneal) for five consecutive days. The STZ dissolved in the 50 mM sodium citrate buffer (pH 4.5) to a final concentration of 4 mg/ml, immediately prior to injection. Nine days after the last STZ injection, all the mice have their FBS (fasting blood sugar) over 200 mg/dl were considered as type 1 diabetic mice group.
# (§3) FBS levels were measured after fasting mice for 6 h (7:00-13:00) with an Accu-Chek glucometer via tail vein. Also in the glucose tolerance test, six hours after the mice were deprived of food (7:00-13:00), the first FBS was measured and after that mouse administrated glucose (2 g/kg bodyweight, intraperitoneally), and then at the indicated time points post-injection, blood glucose levels were measured.
# The fasting blood sugars of mice in all diabetic and normal groups were measured before the treatment and weekly during the treatments. At the end of the treatments, the percentage of FBS changes were calculated. The average percentage of FBS alterations in each group was then determined. Finally, the average result of each group was compared and analyzed with other groups by prism software.
# [2] = Glucose tolerance test (GTT) at the end of the treatment; conditions: for effect on blood glucose levels both in FBS and GTT: diabetic mice
# Experimental: as §1, §2, §3
# P-ERK = assay: Western blot of pancreatic P-ERK; conditions: normal mice, vs N4 (saline)
# Experimental: as §1
# (§4) Proteins were extracted in RIPA buffer which are containing Tris-HCl buffer (100 mM, pH 7.5), ethylene diamine tetra acetic acid (EDTA, 10 mM), sodium pyrophosphate (10 mM), sodium fluoride (0.1 mM), sodium orthovanadate (10 mM), phenylmethylsulphonyl fluoride (PMSF, 2 mM), and aprotinin (10 mg/ml). The pancreas extracts were vortexed for 30 min frequently at 4° C. The homogenates were centrifuged at 12,000 rpm for 20 min at 4° C. The supernatants were stored in an −80° C. freezer. Total protein concentration was determined by the Lowry method. […]
# (§5) All values are depicted as mean±SEM and considered significant if p<0.05. […] Data were analyzed using GraphPad Prism software and the results of groups were compared with the ANOVA test.
# P-STAT5 = assay: Western blot of pancreatic P-STAT5; conditions: for P-STAT5 expression increase in comparison with control group: diabetic mice, vs D4 (saline); for P-STAT5 expression increase compared with control group: normal mice, vs N4 (saline)
# Experimental: as §1
# (§6) Proteins were extracted in RIPA buffer which are containing Tris-HCl buffer (100 mM, pH 7.5), ethylene diamine tetra acetic acid (EDTA, 10 mM), sodium pyrophosphate (10 mM), sodium fluoride (0.1 mM), sodium orthovanadate (10 mM), phenylmethylsulphonyl fluoride (PMSF, 2 mM), and aprotinin (10 mg/ml). The pancreas extracts were vortexed for 30 min frequently at 4° C. The homogenates were centrifuged at 12,000 rpm for 20 min at 4° C. The supernatants were stored in an −80° C. freezer. Total protein concentration was determined by the Lowry method.
# (§7) De-freeze sample was added to loading buffer and dithiothreitol 0.5 M solution, then heated for 5 min at 95° C. Sodium dodecyl sulfate-polyacrylamide gel electrophoresis (SDS PAGE) and then protein transfer to a polyvinylidene difluoride (PVDF) blotting membrane was performed. […] Finally, a result image was developed based on Western Blot-ECL ([…]) Development Protocol.
# (§8) All values are depicted as mean±SEM and considered significant if p<0.05. The arbitrary optical density unit was acquired using ImageJ software (version 1.46). Data were analyzed using GraphPad Prism software and the results of groups were compared with the ANOVA test.
# P-S6 = assay: Western blot of pancreatic P-S6 (mTOR pathway activity)
# Experimental: as §1, §6, §7, §8
# The activity of mTOR pathway was appraised by evaluating the changes in ribosomal P-S6 expression. As a downstream factor of the mTOR pathway, results of pancreatic P-S6 expression in all treated diabetic and normal mice were compared with their control groups. Therefore, changes in P-S6 expression proportionally reflects the activity of mTOR pathway. […] Consequently, GH pulsatile secretion and temporally treatment period in this study via transient increase in mTOR activity can induce and enhance anabolic growth during the treatment, such as cell growth, ribosomal biogenesis, and protein synthesis.
# PAX4 = assay: Western blot of pancreatic PAX4; conditions: normal mice, vs normal control group
# Experimental: as §1, §4, §5
# [3] = system: insulin+ and glucagon+ cells of pancreatic islets; assay: Immunohistochemistry of pancreas sections, insulin+ and glucagon+ cells; conditions: type 1 diabetic mice
# Experimental: as §1
# Fixed tissue in 4% paraformaldehyde for 30 min at 4° C., embedded in paraffin and applied to slides. The prepared 6-μm sections were assayed as described previously. The following primary antibodies were used in these assays: rabbit anti-insulin antibody (ab63820) (1/500), mouse anti-glucagon antibody sc-514592 (1/500), mouse anti-vimentin antibody sc-6260 (1/500), rabbit recombinant anti-Ki67 (ab197547) (1/500), rat anti-CD3 antibody (ab11089) (1/500), mouse anti-CD19 antibody (sc-373897) (1/500). […]
# as §5
Substance,approximate improvement rate of fasting blood sugar in comparison with untreated control diabetic group [1],mean percentage of FBS changes decreased by [1],effect on blood glucose levels both in FBS and GTT [2],P-ERK expression increase in comparison with control group (P-ERK),P-STAT5 expression increase in comparison with control group (P-STAT5),P-STAT5 expression increase compared with control group (P-STAT5),"P-S6 expression increase in comparison with control group (P-S6; diabetic mice, vs D4 (saline))","P-S6 expression increase in comparison with control group (P-S6; normal mice, vs N4 (saline))",Pax4 expression increase in comparison with control group (PAX4),beta cell regeneration [3],"blood sugar course in GTT ([2]; normal mice, glucose 2 g/kg IP)"
"GIGKFLHSAKKFGKAFVGEIMNS (listed as Xenopus laevis) [magainin, cationic, amphipathic, a-helical antimicrobial peptide with twenty-three amino acids, synthesized by Biomatik]",~97.13%,47.9%,greatest effect on reducing blood sugar,no significant difference,not statistically significant,slight and non-significant increase,no significant difference,slight and not significant,~125%,effective beta cell regeneration,
"GH: Human Growth Hormone produced by EXIR under the brand name Exitropin 4 IU (1.3 mg) (Somatropin), lyophilized powder",~57.43%,8.2%,less attenuating effect,no significant difference,not statistically significant,slight and non-significant increase,no significant difference,slight and not significant,~135%,effective beta cell regeneration,higher than in other normal groups
